In patent US10017463B2, “Inhibitors of deubiquitinating proteases” (Brandeis University, priority 2014, dated 2018):

Columns and labels:
[1] = target: purified recombinant USP9x (Homo sapiens, UniProt Q93008); assay: Purified recombinant USP9x, Cy5-Ub-VME activity profiling; format: biochemical; conditions: for inhibition of USP9x in presence of USP7CD: at 12.5 μM; for fluorescent signal of USP9x-(Cy5-Ub-VME) complex: preincubation at 50 or 25 μM
Procedure: Panel A is an image showing that purified recombinant USP9x (7 nM) was treated with the stated compound at 50 μM for 19 min prior to addition of Cy5-Ub-VME for 5 min, then the mixture was resolved by S.D.S-PAGE and analyzed on a typhoon imager. Panel B is an image of an immunoblot showing purified recombinant USP9x (7 nM) and USP7CD (20 nM) were treated with the stated compound at the stated concentration for 19 min prior to addition of Cy5-Ub-VME for 5 min then the mixture was resolved by S.D.S-PAGE and analyzed on a Typhoon imager.

[2] = test system: leukemic cell lines; assay: NCI-60 human tumor cell line screen; format: cell-based; conditions: 48 h treatment
Excerpt: For example, a value of 100 means no growth inhibition and a value of 40 indicates 60% growth inhibition. A value of ‘0’ indicates complete growth inhibition.

[3] = test system: K48-linked ubiquitin; assay: K48-linked ubiquitin immunoblot in BaF3/p210 cells; format: cell-based, murine; conditions: 4 h, various concentrations
Procedure: Panel A is an image of an immunoblot showing BaF3/p210 cells were treated with various concentrations of TU46 for 4 h, and then whole cell lysates were blotted for K48-linked ubiquitin and tubulin. Panel B is an immunoblot showing same lysates as in Panel A were blotted for Bcr-Abl.
The K48-linked ubiquitin levels were also probed in these lysates. […] The increase in K48-linked ubiquitin coincided with the loss of Bcr-Abl (FIG. 8, Panel B). Since USP9x is known to deubiquitinate K48-linked polyubiquitin chains, it is possible that this increase in K48-linked ubiquitin is due to USP9x inhibition. See Park et al., PNAS 110, 9433-9438 (2013).

Chain of purified recombinant USP9x (Q93008 whole entry, species assumed): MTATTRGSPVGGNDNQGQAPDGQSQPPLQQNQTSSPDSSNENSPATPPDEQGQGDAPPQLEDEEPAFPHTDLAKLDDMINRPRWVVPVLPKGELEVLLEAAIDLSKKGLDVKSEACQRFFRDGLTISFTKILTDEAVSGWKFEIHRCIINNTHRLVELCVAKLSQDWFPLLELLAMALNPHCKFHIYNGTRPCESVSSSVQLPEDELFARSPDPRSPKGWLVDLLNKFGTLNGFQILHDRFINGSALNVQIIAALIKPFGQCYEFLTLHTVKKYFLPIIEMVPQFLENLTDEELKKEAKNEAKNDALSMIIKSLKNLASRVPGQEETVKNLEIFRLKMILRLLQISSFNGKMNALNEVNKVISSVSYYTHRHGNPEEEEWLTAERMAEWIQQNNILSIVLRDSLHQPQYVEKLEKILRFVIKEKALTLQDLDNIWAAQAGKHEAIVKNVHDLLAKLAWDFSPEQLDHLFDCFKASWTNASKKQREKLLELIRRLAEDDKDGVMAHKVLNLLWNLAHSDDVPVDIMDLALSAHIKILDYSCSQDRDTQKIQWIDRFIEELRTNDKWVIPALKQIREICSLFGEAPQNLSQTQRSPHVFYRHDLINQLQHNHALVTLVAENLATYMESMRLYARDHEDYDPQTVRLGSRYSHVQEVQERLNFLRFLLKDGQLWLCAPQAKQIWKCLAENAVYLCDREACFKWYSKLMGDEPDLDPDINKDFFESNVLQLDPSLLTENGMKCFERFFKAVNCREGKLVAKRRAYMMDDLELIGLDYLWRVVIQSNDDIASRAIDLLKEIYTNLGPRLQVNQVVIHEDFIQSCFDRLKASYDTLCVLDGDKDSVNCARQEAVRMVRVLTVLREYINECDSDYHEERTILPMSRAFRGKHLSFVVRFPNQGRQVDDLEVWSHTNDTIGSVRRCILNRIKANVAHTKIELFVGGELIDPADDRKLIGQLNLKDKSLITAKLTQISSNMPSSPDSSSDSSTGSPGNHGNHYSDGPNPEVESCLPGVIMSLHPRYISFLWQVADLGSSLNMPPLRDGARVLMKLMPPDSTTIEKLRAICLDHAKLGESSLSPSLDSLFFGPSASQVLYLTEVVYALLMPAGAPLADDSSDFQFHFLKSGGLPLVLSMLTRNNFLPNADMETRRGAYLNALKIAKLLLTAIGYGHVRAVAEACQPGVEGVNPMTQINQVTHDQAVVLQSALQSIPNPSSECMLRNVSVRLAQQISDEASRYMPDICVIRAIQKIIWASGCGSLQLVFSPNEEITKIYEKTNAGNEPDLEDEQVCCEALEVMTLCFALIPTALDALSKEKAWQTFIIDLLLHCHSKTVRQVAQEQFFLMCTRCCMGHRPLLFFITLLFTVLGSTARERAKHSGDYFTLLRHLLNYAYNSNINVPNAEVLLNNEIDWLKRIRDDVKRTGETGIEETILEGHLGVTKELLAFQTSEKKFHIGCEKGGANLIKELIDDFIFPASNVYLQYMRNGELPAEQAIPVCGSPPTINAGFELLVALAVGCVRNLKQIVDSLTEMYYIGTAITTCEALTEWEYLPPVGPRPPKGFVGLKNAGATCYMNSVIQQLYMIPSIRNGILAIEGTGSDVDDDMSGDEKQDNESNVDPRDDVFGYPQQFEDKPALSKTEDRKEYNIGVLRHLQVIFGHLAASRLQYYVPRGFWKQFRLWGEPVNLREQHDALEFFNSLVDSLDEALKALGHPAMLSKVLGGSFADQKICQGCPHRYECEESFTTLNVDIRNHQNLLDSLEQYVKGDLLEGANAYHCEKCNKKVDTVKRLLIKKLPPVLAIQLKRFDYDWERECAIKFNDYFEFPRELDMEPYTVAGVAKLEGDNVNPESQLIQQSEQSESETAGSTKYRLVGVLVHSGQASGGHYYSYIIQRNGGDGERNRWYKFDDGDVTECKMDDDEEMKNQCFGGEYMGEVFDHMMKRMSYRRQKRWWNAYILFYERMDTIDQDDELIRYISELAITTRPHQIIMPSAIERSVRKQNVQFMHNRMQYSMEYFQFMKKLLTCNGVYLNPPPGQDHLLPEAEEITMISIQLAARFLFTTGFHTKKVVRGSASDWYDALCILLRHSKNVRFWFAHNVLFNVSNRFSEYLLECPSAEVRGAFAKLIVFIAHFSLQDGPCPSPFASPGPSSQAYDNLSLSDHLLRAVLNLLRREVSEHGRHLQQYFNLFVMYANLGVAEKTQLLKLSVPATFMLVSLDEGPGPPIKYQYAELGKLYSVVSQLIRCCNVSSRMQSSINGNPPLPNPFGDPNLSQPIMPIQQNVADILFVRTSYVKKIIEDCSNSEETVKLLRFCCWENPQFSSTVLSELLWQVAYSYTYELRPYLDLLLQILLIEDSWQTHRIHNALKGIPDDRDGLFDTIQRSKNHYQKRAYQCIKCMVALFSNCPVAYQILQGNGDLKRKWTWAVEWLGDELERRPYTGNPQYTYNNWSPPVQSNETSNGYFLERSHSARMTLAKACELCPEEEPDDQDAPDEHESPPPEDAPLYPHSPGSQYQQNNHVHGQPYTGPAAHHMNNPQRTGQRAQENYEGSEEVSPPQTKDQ

Structure (SMILES): CC(C)(C)OC(=O)NCc1cccc(N=C=S)c1 [TU50]
- inhibition of USP9x in presence of USP7CD [1]: strongly inhibited
- fluorescent signal of USP9x-(Cy5-Ub-VME) complex [1]: oblation of the fluorescent signal
- lethality in NCI-60 screen [2]: selective lethality against leukemic cell lines

Structure (SMILES): CC(C)(C)OC(=O)NCCc1ccc(N=C=S)cc1 [TU46]
- inhibition of USP9x in presence of USP7CD [1]: strongly inhibited
- fluorescent signal of USP9x-(Cy5-Ub-VME) complex [1]: oblation of the fluorescent signal
- K48-linked ubiquitin level [3]: increases K48-linked ubiquitin
